Data as given in patent US6599706B1, “Recombinant PR-3 and assays employing the same” (Chiron Corporation, priority 1994, dated 2003).
Read-outs that look alike come from different tables or passages of the source. No end group written: not given here.

Experiments:
[1] = biological target: T1, purified native PR-3 from human neutrophils (Homo sapiens, UniProt P24158); assay: 35S-labelled 26 kD TNFα autoradiographic convertase assay with purified native PR-3; format: biochemical; conditions: PR-3 0.3 μg/ml preincubated 30 minutes
T1 construct: from tissue; host or cells: human blood neutrophils
T1 sequence (P24158 28-248): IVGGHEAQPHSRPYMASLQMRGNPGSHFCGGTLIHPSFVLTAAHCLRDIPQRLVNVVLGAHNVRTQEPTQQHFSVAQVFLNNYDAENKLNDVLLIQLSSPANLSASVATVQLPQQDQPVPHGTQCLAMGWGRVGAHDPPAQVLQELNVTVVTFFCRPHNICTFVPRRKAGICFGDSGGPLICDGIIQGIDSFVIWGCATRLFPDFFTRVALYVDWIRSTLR
Description: (§1) ^35S-cysteine-labelled 26 kD TNFα was used to assay for convertase inhibitors as follows. 25 μl of in vitro translated material was combined with 250 μl of solution containing convertase activity partially purified from uninduced HL60 cells, plus compounds to be assayed for inhibitory activity. The convertase was produced by harvesting 2×10^9 HL60 cells, disrupting the cells, and isolating S-1 (supernatant fluid from a 100,000 ×g centrifugation) and P-30 (pellet from a 30,000×g centrifugation) fractions totalling 18 and 6 ml, respectively. 250 μl of the P-30 fraction was used, although the S-1 fraction may also be used. The assay was carried out at 30° C. for 1 hour, essentially as described above. Next, the reaction mixture was immunoprecipitated with rabbit anti-human TNFα polyclonal antisera (produced from TNFα made in E. coli) and protein A Sepharose, pelleted and washed. The bound protein was eluted and electrophoresed using SDS-PAGE. The gel was fixed in 40% methanol, 10% acetic acid, soaked in Enlightening (Dupont), dried, and exposed to X-ray film which was subsequently developed.
The above assay was also used with purified native PR-3 from human neutrophils to test a variety of proteinase inhibitors for their ability to inhibit TNFα convertase activity, as shown in FIG. 5. Purified PR-3 (0.3 μg/ml) was preincubated for 30 minutes with the following inhibitors prior to addition of ^35S-labelled 26 kD-TNFα, and then assayed as described above: DCI (45 μM), α-2-macroglobulin (1 mg/ml), PMSF (20 μM), leupeptin (2 μg/ml), EDTA (10 mM), or pepstatin (2 μg/ml).

PR-3 [2] = biological target: T2, PR-3 (Homo sapiens, UniProt P24158); conditions: cited from earlier work
T2 sequence (P24158 28-248): T1 sequence (P24158 28-248)

[3] = biological target: T3, TNFα convertase/PR-3 (purified native PR-3) (Homo sapiens, UniProt P24158); assay: Colorimetric Boc-Ala-ONp assay for convertase inhibition; format: biochemical
T3 construct: from tissue; host or cells: human blood neutrophils
T3 sequence (P24158 28-248): T1 sequence (P24158 28-248)
Description: TNFα convertase inhibition can also be measured by a colorimetric assay. In this type of assay, the actual activity of TNFα convertase is measured directly using a colorimetric TNFα convertase substrate. […] One such substrate is Boc-Ala-ONp (Bachem Bioscience, Inc., Philadelphia, Pa.). Other potentially useful substrates can be predicted from the structure of TNFα convertase and other serine proteases. Although the example herein uses purified native PR-3 as the TNFα convertase, it is contemplated that recombinant PR-3 or other TNFα convertases can be used in this assay as well.
Peptide diphenyl phosphonate inhibitors were synthesized and stored as lyophilized solids as described in Oleksyszyn and Powers, Biochem 30:485-493 (1991). Inhibitor solutions (10 mg/ml) were prepared in 100% dimethyl sulfoxide (DMSO) and diluted into aqueous buffers upon initiation of the experiments. 3,4, dichloro-isocoumarin was purchased from CalBiochem. Purified PR-3 (10 μl, 0.1 mg/ml) was mixed with varying concentrations of protease inhibitor ([…]) in 20 mM sodium phosphate buffer, pH 7.0, containing 0.1 M sodium chloride. Aliquots (40 μl) were removed at selected times and diluted 1/10 into a colorimetric assay for convertase, containing 0.5-1 mM Boc-Ala-ONp (prepared fresh from a 50 mM stock in 100% methanol) in 0.02 M sodium phosphate buffer, pH 7.0, 0.1 M sodium chloride. The increase in absorbance was monitored at 347 nm on a Hewlett Packard 8450A spectrophotometer, and using an extinction coefficient of 5.5×10^3 M^−1cm^−1 to calculate units of enzyme activity.
The peptide diphenyl phosphonates were tested in the colorimetric assay described in Example 3, for inhibition of TNFα convertase/PR-3 activity.

recombinant PR-3 (rPR-3) = biological target: T4, recombinant PR-3 (rPR-3) (Homo sapiens, UniProt P24158); assay: Residual recombinant PR-3 activity with Boc-Ala-ONp substrate; format: biochemical
T4 construct: made in house; host or cells: Sf9 insect cells (baculovirus, pAcC13preproPR-3)
T4 sequence (P24158 28-248 limits assumed): T1 sequence (P24158 28-248)
Description: Cytoplasmic anti-neutrophil cytoplasmic antibodies (c-ANCA) are human polyclonal antibodies derived from patients with Wegener's granulomatosis. […] Protein-A-purified human c-ANCA (supplied by Dr. Erik Hack, The Netherlands) was mixed with purified recombinant PR-3 (SEQ ID NO: 23) prepared as described above at various molar ratios of antibody to enzyme, and after incubation for 1 hour at 37° C., residual enzyme activity was measured using the Boc-Ala-ONp substrate as described in Example 4.
The two peptide diphosphonate inhibitors, Boc-Ala-Pro-Val-(OPh)2 and Boc-Val-Pro-Val-(OPh)2, were mixed at various concentrations with 125 ng of rPR-3 (prepared as described above) and incubated for 1 hour at 25° C. The residual enzyme activity was measured using the Boc-Ala-ONp substrate and compared to the same amount of enzyme incubated in the absence of inhibitor. Under these conditions, the Boc-Ala-Pro-Val-(OPh)2 inhibited PR-3 with an IC50 of about 10 μM and the Boc-Val-Pro-Val-(OPh)2 inhibited PR-3 with an IC50 of about 0.4 μM. […] Thus, recombinant PR-3 may be employed in detection of useful inhibitors of native PR-3.

PR-3 [4] = biological target: T2, PR-3; assay: Inhibition of PR-3, summary statement of the assays shown below; format: biochemical
Description: As shown below, PR-3 is inhibited by peptide diphenyl phosphonate inhibitors, elastinal, and dichloro-isocoumarin (DCI). The peptide diphenyl phosphonate inhibitors include Boc-Val-Pro-Val-p(OPh)2 and Boc-Ala-Pro-Val-p(OPh)2 (BOC-butoxycarbonyl). […] “Boc” means N-tert-butoxycarbonyl and “p(OPh)2” represents the diphenyl phosphonate moiety, wherein the formula—COOH group is replaced with P(=0)-(O-phenyl)2. See Oleksyszyn et al., Biochem 30:485 (1991). It will be appreciated that other peptide diphenyl phosphonate molecules may inhibit PR-3. Potential inhibitors may be constructed using the procedures shown in Oleksyszyn et al., supra, using small aliphatic peptides, for an example. Once the potential inhibitors are made, they may be tested in the assays shown below.

[5] = biological target: T5, TNFα convertase from HL60 cells (Homo sapiens, UniProt P24158); assay: 35S-labelled 26 kD TNFα in vitro transcription/translation autoradiographic convertase assay with HL60 convertase (P-30 fraction); format: biochemical; conditions: 5 mg/ml; 30° C., 1 hour; SDS-PAGE autoradiography
T5 construct: solution containing convertase activity partially purified from uninduced HL60 cells; endogenous in cells
T5 sequence (P24158 28-248): T1 sequence (P24158 28-248)
Description: A preferred assay procedure consists of in vitro transcription/translation to produce the 26 kD molecule, followed by treatment with convertase in the presence or absence of compounds being tested for convertase inhibitory activity. The procedure entails in vitro transcription/translation of the TNFα cDNA present in the pGEM vector. Thus, the sequence was removed from pB11 by Pst I digestion and was inserted into the Pst I site of pGEM-3 (obtainable from Promega Biotec, Madison Wis.). The resulting plasmid, termed pGEM-TNFα14, was amplified in E. coli using established techniques, and plasmid DNA was prepared according to the procedure of Birnboim and Doly, described above. Plasmid DNA was transcribed in vitro by linearizing it with Hind III, and the linearized plasmid templates were used to prepare capped transcripts with T7 RNA polymerase and an in vitro transcription kit supplied by Promega Biotec (Madison, Wis.).
The mRNA produced above was translated in vitro in the presence of ^35S-cysteine to produce ^35S-cysteine-labelled 26 kD TNFα. A rabbit reticulocyte lysate translation kit was used, also supplied by Promega Biotec, and the conditions recommended by the manufacturer were followed.
as §1, with “The bound protein was eluted and electrophoresed using SDS-PAGE. The gel was fixed in 40% methanol, 10% acetic acid, soaked in Enlightening (Dupont), dried, and exposed to X-ray film which was subsequently developed.” left out

O=S(=O)(F)Cc1ccccc1 [PMSF, phenylmethyl-sulfonyl fluoride]
inhibition of TNFα convertase activity of purified PR-3 ([1]; 20 μM): significant inhibitory activity | inhibition of PR-3 (PR-3 [2]): inhibited

CC(C)C(NC(=O)[C@@H]1CCCN1C(=O)[C@@H](NC(=O)OC(C)(C)C)C(C)C)P(=O)(Oc1ccccc1)Oc1ccccc1 (stereo partly drawn) [VPV, Boc-Val-Pro-Val-p(OPh)2]
inhibition of TNFα convertase/PR-3 activity ([3]; 35 μM): demonstrated inhibitory activity | IC50 (recombinant PR-3 (rPR-3)): ~400 nM | inhibition of PR-3 (PR-3 [4]): inhibited

CC(C)C[C@H](NC(=O)N[C@H](C(=O)N[C@@H](CCC(N)=O)C(=O)N[C@@H](C)C=O)[C@@H]1CCNC(=N)N1)C(=O)O [elastinal]
inhibition of the convertase (conversion of 26 kD TNFα) [5]: inhibit the convertase | inhibition of PR-3 (PR-3 [4]): inhibited

AQAVRSSS
inhibition of convertase activity ([3]; 50 μM, Boc-Ala-ONp colorimetric assay with PR-3): did not inhibit convertase activity significantly

α1-antitrypsin: protein reported to inhibit PR-3
inhibition of PR-3 (PR-3 [2]): inhibited

α-2-macroglobulin: proteinase inhibitor tested against purified PR-3
inhibition of TNFα convertase activity of purified PR-3 ([1]; 1 mg/ml): significant inhibitory activity | inhibition of PR-3 (PR-3 [2]): inhibited
